{"source": "patent US6071896A", "about": "“Suppression of thromboxane levels by percutaneous administration of aspirin” (Gundersen Clinic, Ltd., priority 1998, dated 2000)", "key": {"[1]": {"test_system": "PGI2 formation in response to intravenous bradykinin", "conditions": "on average; cited from earlier work"}, "[2]": {"test_system": "PGI2 formation in response to intravenous bradykinin", "test": "Urinary PGI-M excretion at rest and after bradykinin infusion, Example 3", "format": "in vivo, human", "conditions": "4 subjects; intravenous 100-800 ng/kg/min", "description": "In an additional 4 subjects, we examined the increase in PGI2 formation in response to intravenous bradykinin prior to and following oral aspirin 75 mg or dermal aspirin 750 mg daily for 14 days. The protocol for bradykinin has been described previously [Clark, N.Engl.J.Med 325:1137 (1991)]. Volunteers were admitted after an overnight fast to the Clinical Research Center. Blood samples were obtained for serum TXB2 and the subject asked to void. Through a peripheral vein, 1 liter of normal saline was infused over 1 hour. After a further hour, bradykinin was infused in incremental doses of 100-800 ng/kg/min, each over 15 mm. The infusion was continued at the maximum tolerated dose for a total period of 2 hr. Blood pressure and heart rate were monitored continuously. Urine was collected in separate 2 hr aliquots prior to, during and following the bradykinin infusion.\n^1 The excretion of TXM and PGIM before and following dermal aspirin\n750 mg/day or oral aspirin 75 mg/day for 10 days. Urine samples were\ncollected over 2 hr before (rest) and following the administration of […]"}}, "note": "Ends that are not written are not given here."}
{"sequence": "RPPGFSPFR [bradykinin]", "values": [{"measurement": "Increase in PGI2 biosynthesis by bradykinin, previous studies", "setting": "[1]", "value": "2-6 fold"}, {"measurement": "Increase in PGI-M excretion induced by bradykinin", "setting": "[2]", "value": "5.1±6", "unit": "fold"}]}
